Consider 11 molecules from article PMC6895141, “Antimicrobial Efficacy of Indolicidin Against Multi-Drug Resistant Enteroaggregative Escherichia coli in a Galleria mellonella Model” (Frontiers in Microbiology, 2019).

In brackets after ≈: the same amount, converted by molar mass.

Test [1] deals with MDR-EAEC isolate KY941937.1 (MDR 2). The experiment in a line: In vitro antibiotic susceptibility testing. Also noted: key to Antibiotic Susceptibility testing / MIC Values, class symbol: S – Sensitive; R- Resistant. Type of test: cell-based, enteroaggregative Escherichia coli. The following applies: for Antibiotic Susceptibility testing: CLSI 2018; for MIC: numeric cells; for MIC Values, class symbol: cells printed as S. The source says:
(§1) The typical EAEC strains, isolated from the fecal samples of human infants with GenBank accession numbers, KY941936.1 (MDR 1); KY941937.1 (MDR 2); and KY941938.1 (MDR 3), available at Division of Veterinary Public Health, Indian Veterinary Research Institute, Bareilly were re-validated as described earlier ([Vijay et al., 2015]) and tested for antibiotic susceptibility ([Clinical and Laboratory Standards Institute [CLSI], 2018]). E. coli ATCC 25922 used as quality control strain was provided by the Department of Veterinary Public Health, College of Veterinary and Animal Sciences, Pookode, India. These bacterial strains were grown on nutrient agar medium at 37°C.

Test [2] deals with MDR-EAEC isolate KY941936.1 (MDR 1). In words: In vitro antibiotic susceptibility testing. Type of test: cell-based, enteroaggregative Escherichia coli. On the set-up: key to Antibiotic Susceptibility testing / MIC Values, class symbol: S – Sensitive; R- Resistant. The following applies: for Antibiotic Susceptibility testing: CLSI 2018; for MIC: numeric cells; for MIC Values, class symbol: cells printed as S.
Description: as §1

Test [3] concerns MDR-EAEC isolate KY941938.1 (MDR 3). The experiment in a line: In vitro antibiotic susceptibility testing. The following applies: for Antibiotic Susceptibility testing: CLSI 2018; for MIC: numeric cells; for MIC Values, class symbol: cells printed as S. Type of test: cell-based, enteroaggregative Escherichia coli. Also noted: key to Antibiotic Susceptibility testing / MIC Values, class symbol: S – Sensitive; R- Resistant.
Description: as §1

The test system of test [4] is MDR-EAEC isolates. In words: In vitro dose- and time-dependent killing kinetics. The following applies: Meropenem 10 μg/ml. Type of test: cell-based, enteroaggregative Escherichia coli. The method, then: The in vitro growth kinetics of MDR-EAEC isolates was evaluated by incubating the log-phase bacterial cultures of each MDR-EAEC isolate (ca. 1 × 10^7 CFU/mL) in CA-MH broth with MIC (1X and 2X) concentrations of Indolicidin, in triplicates (Supplementary File S8). The desired bacterial numbers for each MDR-EAEC isolate and Indolicidin were suspended in CA-MH broth as follows: Group I, 10^7 CFU of MDR-EAEC (50 μL) with 1X MIC Indolicidin (50 μL); Group II, 10^7 CFU of MDR- EAEC (50 μL) with MBC Indolicidin (50 μL); Group III, 10^7 CFU of MDR- EAEC (50 μL) with Meropenem (10 μg/ml; 50 μL); Group IV, 10^7 CFU of MDR- EAEC (50 μL) with CA-MH broth (50 μL) and Group V, 10^7 CFU of MDR- EAEC (50 μL) with 4X MIC Indolicidin (50 μL). To enumerate the antibacterial effect of Indolicidin on MDR-EAEC isolates, an aliquot at 10 μL from all the five groups were drawn at 0, 30, 60, 90, 120, 150, 180 min, 24, 48, and 72 h. These aliquots were serially diluted 10-fold in normal saline solution (prepared using 0.90% of sodium chloride, HiMedia Laboratories); the last three dilutions placed on EMB agar plates containing 100 μg of ampicillin ([Miles et al., 1938]) were counted after 24 h of incubation at 37°C, and the bacterial counts were expressed as log10CFU/mL. […]

Test [5] deals with MDR-EAEC strains. The experiment in a line: Survival of MDR-EAEC infected G. mellonella larvae. Type of test: in vivo, Galleria mellonella. The following applies: larvae infected with LD50 dose (10^6 CFU) MDR-EAEC cocktail, treated 3 h pi with MIC dose (10 μL); upto 120 h pi; n = 40 larvae per group. As to the method:
In vivo assays were performed using the final instar of G. mellonella larvae that were stored in wood shavings at 15°C in the dark prior to the experiment ([Morgan et al., 2014]). The larvae were kept in a germ-free environment and were provided with ad libitum food during the course of experiment. Initially, LD50 dose of each MDR-EAEC strains was determined in G. mellonella larvae, and the validated LD50 dose was used further in the in vivo studies to evaluate the antibacterial effect of Indolicidin (Supplementary File S9) by injection with a Hamilton syringe (26 gage) via the last right pro-leg.
(§2) Galleria mellonella larvae (n = 40 larvae per group) were grouped as follows: Group I (infected group), Groups II and III (infection + treatment groups), Group IV (PBS control), and Group V (AMP control). Larvae from groups I to III were infected with cocktail of MDR-EAEC strains (LD50 dose; 10 μL); groups II and III were administered 3 h post-infection (pi) with MIC dose (10 μL) of Indolicidin and Meropenem, respectively; Group IV were injected with sterile PBS whereas, group V was administered with MIC dose of Indolicidin.

Test [6] relates to G. mellonella larvae. The experiment in a line: Melanization assay in G. mellonella larvae. Type of test: in vivo, Galleria mellonella. The following applies: infected larvae treated 3 h pi; absorbance 450 nm of hemolymph, 6 to 96 h pi. The method, then:
as §2
For determination of the melanin production, an immune marker, the G. mellonella (n=3 larvae per group) were investigated at an interval of 6 h pi for 24 h, followed by 24 h interval till 96 h. An aliquot of the pooled haemolymph (100 µl) was transferred into 96-well microtiter plate for measuring the optical density (OD) at a wavelength of 450 nm using ELISA plate reader (Thermo Scientific Multiskan GO) with OD values of haemolymph collected from apparently healthy un-inoculated larvae as the background control.

With `CC1(C)S[C@@H]2[C@H](NC(=O)[C@H](N)c3ccccc3)C(=O)N2[C@H]1C(=O)O` [AMP, Ampicillin], the “Antibiotic Susceptibility testing” value in test [1], in test [2] and in test [3] was “R” throughout. The MIC in test [1] (Escherichia coli), in test [2] (Escherichia coli) and in test [3] (Escherichia coli) was > 240 µM each time.
Turning to `O=C(O)c1cn(C2CC2)c2cc(N3CCNCC3)c(F)cc2c1=O` [CIP, Ciprofloxacin], the MIC in test [1] (Escherichia coli) amounted to 120 µM (≈ 39.8 µg/mL); in test [3] (Escherichia coli) it was 60 µM (≈ 19.9 µg/mL).
Turning to `O=C(N[C@H](CO)[C@H](O)c1ccc([N+](=O)[O-])cc1)C(Cl)Cl` [CL, Chloramphenicol], the “Antibiotic Susceptibility testing” value in test [1], in test [2] and in test [3] was “S” in each case. Moreover, the “MIC Values, class symbol” value in test [1], in test [2] and in test [3] was “S” each time.
In the case of `CO/N=C(\C(=O)N[C@@H]1C(=O)N2C(C(=O)O)=C(CSc3nc(=O)c(=O)[nH]n3C)CS[C@H]12)c1csc(N)n1` [CTR, Ceftriaxone], the entries for the “Antibiotic Susceptibility testing” value in test [1], in test [2] and in test [3] were “R”, “S” and “R”, respectively. The MIC in test [1] (Escherichia coli) and in test [3] (Escherichia coli) was > 240 µM throughout. Also, the “MIC Values, class symbol” value in test [2] is on record as “S”.
For the molecule `CNC(C)C1CCC(N)C(OC2C(N)CC(N)C(OC3OCC(C)(O)C(NC)C3O)C2O)O1` (centres unmarked) [GEN, Gentamicin], the “Antibiotic Susceptibility testing” value in test [1], in test [2] and in test [3] was “S” in each case. Moreover, the “MIC Values, class symbol” value in test [1], in test [2] and in test [3] was “S” in each case.
With `C[C@@H](O)[C@H]1C(=O)N2C(C(=O)O)=C(SCCN=CN)C[C@H]12` [IMI, Imipenem], the “Antibiotic Susceptibility testing” value in test [1], in test [2] and in test [3] was “S” each time. The “MIC Values, class symbol” value in test [1], in test [2] and in test [3] was “S” in each case.
Take `C[C@@H](O)[C@H]1C(=O)N2C(C(=O)O)=C(S[C@@H]3CN[C@H](C(=O)N(C)C)C3)[C@H](C)[C@H]12` [Meropenem]: the “time to similar inhibition (complete elimination) in time-kill kinetic assay” value in test [4] is 60 min. Besides, in test [5], the survival rate amounted to 85%. Further, in test [6], the melanization result was “the melanization was lower at 6 h pi, reached its peak at 18 h pi and thereafter gradually declined”.
As for `Cc1cc(NS(=O)(=O)c2ccc(N)cc2)no1` [SXT, Sulfamethoxazole], the “Antibiotic Susceptibility testing” value in test [1] was “S”; in test [2], “R”; in test [3] it was “R”.
Take `CN(C)[C@@H]1C(O)=C(C(N)=O)C(=O)[C@@]2(O)C(O)=C3C(=O)c4c(O)cccc4[C@@](C)(O)[C@H]3C[C@@H]12` [TE, Tetracycline]: the “Antibiotic Susceptibility testing” value in test [1], in test [2] and in test [3] was “R” each time. Moreover, the MIC in test [1] (Escherichia coli) came to 2 µM (≈ 0.889 µg/mL); in test [2] (Escherichia coli), 60 µM (≈ 26.7 µg/mL); in test [3] (Escherichia coli), 30 µM (≈ 13.3 µg/mL).
In the case of Co-trimoxazole [COT], the “Antibiotic Susceptibility testing” value in test [1], in test [2] and in test [3] was “R” each time. Besides, the MIC in test [1], in test [2] and in test [3] was >240 µM throughout.
For the molecule Colistin sulphate, the “Antibiotic Susceptibility testing” value in test [1], in test [2] and in test [3] was “S” each time. The “MIC Values, class symbol” value in test [1], in test [2] and in test [3] was “S” each time.
